From US5210027A, “DNA encoding novel antimicrobial polypeptide and methods for obtaining such polypeptide” (INCYTE Pharmaceuticals, Inc., priority 1991, dated 1993)

Assays:
Assay type in all cases: cell-based
[1] = tested on: Candida albicans (clinical isolate); assay: Microbicidal assay (colony forming units) against Candida albicans; details: in vitro
Experimental: (§1) Microbicidal activity was routinely tested against Escherichia coli K12 (MC4100), Streptococcus faecalis (ATCC Accession No. 29212) and Candida albicans (clinical isolate). Organisms from a single colony on agar plates were inoculated into liquid medium and cultured overnight at 37° C. Aliquots of the overnight culture were inoculated into fresh nutrient broth and grown to mid-exponential phase. Cultures were then diluted into the test medium to the appropriate concentration.
Samples from reverse-phase liquid chromatography to be tested for microbicidal activity were dried by vacuum centrifugation in Immulon I microtire plates in the presence of 50 μl 0.1% BSA. Dried samples were resuspended in 0.1% acetic acid and returned to dryness by vacuum centrifugation. Samples were then resuspended in assay buffer and after appropriate dilutions of samples had been made, test organisms were added to the wells and incubation at 37° C. was carried out for 30 to 60 minutes. Killing of all organisms was carried out in 20 mM phosphate pH 6, 0.25M glucose and 0.02% Tween 20 unless otherwise indicated. […] Colony forming units were determined manually or by automated counting after overnight incubation at 37° C.

[2] = tested on: Streptococcus faecalis (ATCC Accession No. 29212); assay: Microbicidal assay (colony forming units) against Streptococcus faecalis
Experimental: as §1
(§2) Samples from reverse-phase liquid chromatography to be tested for microbicidal activity were dried by vacuum centrifugation in Immulon I microtire plates in the presence of 50 μl 0.1% BSA. Dried samples were resuspended in 0.1% acetic acid and returned to dryness by vacuum centrifugation. Samples were then resuspended in assay buffer and after appropriate dilutions of samples had been made, test organisms were added to the wells and incubation at 37° C. was carried out for 30 to 60 minutes. Killing of all organisms was carried out in 20 mM phosphate pH 6, 0.25M glucose and 0.02% Tween 20 unless otherwise indicated. A volume of the assay mixture corresponding to 200-300 organisms in the control assays were plated onto trypticase soy agar plates (Escherichia coli and Streptococcus faecalis) or spread onto Sabouraud dextrose agar plates (Candida albicans). Colony forming units were determined manually or by automated counting after overnight incubation at 37° C.

[3] = tested on: Escherichia coli K12 (MC4100); assay: Microbicidal assay (colony forming units) against Escherichia coli
Experimental: as §1, §2

[4] = in vitro, 20 mM phosphate pH 6, 0.25M glucose, 0.02% Tween 20, 37° C., 30 to 60 minutes, relative to Peak 1 (defensins)

val-cys-ser-cys-arg-leu-val-phe-cys-arg-arg-thr-glu-leu-arg-val-gly-asn-cys-leu-ile-gly-gly-val-ser-phe-thr-tyr-cys-cys-thr-arg-val [Peak 2]
microbicidal activity compared with a mixture of previously described defensins [1]: significantly more active | microbicidal activity, fold more active than Peak 1 ([1]; 20 mM phosphate pH 6, 0.25M glucose, 0.02% Tween 20, 37° C., 30 to 60 minutes, relative to Peak 1 (defensins)): about 5 fold | effect of detergents Tween 20 and NP40 on microbicidal activity ([2]; against bacteria, FIG. 7): enhanced | microbicidal activity compared with a mixture of previously described defensins ([2]; in vitro): significantly more active | concentration required to reach the indicated levels of killing (50% or 90%), fold less than for Peak 1 [2, 4]: about 100 fold | effect of detergents Tween 20 and NP40 on microbicidal activity ([3]; against bacteria, FIG. 7): enhanced | microbicidal activity compared with a mixture of previously described defensins ([3]; in vitro): significantly more active | microbicidal activity, fold more active than Peak 1 [3, 4]: 15-30 fold
